From patent US20230399317A1, “COMPOUNDS AND METHODS FOR THE TREATMENT OF OCULAR DISORDERS” (Azura Ophthalmics Ltd., priority 2020, published 2023)

Experiments:
[1] = Aqueous hydrolysis stability assay, Method 2; format: physicochemical; settings: Method 2: DPBS pH 7.4, 37° C.
Protocol: Determination of aqueous stability of the test compounds was performed using HPLC-MS or UPLC-MS. A test compound 10 mM stock solution was prepared in DMSO. Half-life (T1/2) of the parent conjugate is calculated using the peak area of the parent conjugate at each time point in the linear region of the log-linear plot.
10 μL of the DMSO stock solution is dissolved in 990 μL of DPBS pH 7.4 buffer to prepare 100 μM solution. A further dilution is made by dissolving 75 μL of 100 μM stock solution into 225 μL of DPBS. Final DMSO concentration is 0.25%. The solution is kept at 37° C. and injected without delay into the LCMS (Waters Xevo XSQ-ToF). Additional injections are performed at appropriate time points.

[2] = Rabbit Cornea Homogenate stability (esterase) assay, Method 2; format: in vitro ADME; settings: for Esterase % Lifitegrast formation at 45 min: 37° C., Method 2 (DPBS pH 7.4); for API Formation rate (%/min): Method 2
Protocol: Determining Rabbit Cornea Homogenate stability of the test compounds was performed using HPLC-MS or UPLC-MS. The assay was performed at two concentrations of Rabbit Cornea Homogenate (0.15 mg/mL and 0.45 mg/mL total protein) so that any hydrolysis observed can be assigned as esterase dependent or not.
Three to five rabbit corneas (e.g. New Zealand Whites (NZW) or Dutch Belted (DB)) of approx. 50 mg each were sliced and scraped with a scalpel and tweezers until reduced to small (1-3 mm), thin pieces. These were transferred into a glass vial containing approximately 2 mL of cold DPBS pH 7.4 buffer.
Sample was cooled intermittently on ice and shear homogenized for 3 minutes, then centrifuged for 3 min at 13,000 g. The supernatant was pipetted off into a vial, and total protein concentration determined at 280 nm. Sample was stored at −78° C.
10 mM Compound DMSO stocks were diluted to 10 μM in a glass vial: 10 μL of 10 mM Compound stock was added to 9,990 μL DPBS, pH 7.4 buffer. Esterase homogenate was diluted to 300 ng/μL and 900 ng/μL in DPBS. […]
A heater shaker was set to 37° C. Into a suitable 96 well plate (Run Plate), 80 μL of 300 or 900 ng/μL esterase homogenate was pipetted into two rows as compounds were analyzed in duplicate (0 min, 2 min, 5 min, 10 min, 20 min and 45 min). The plate was sealed and then warmed at 37° C. for 5 min.
Two 96 shallow-well plates were placed on ice (Kill Plates). To these, 180 μL of 60:40 MeCN-H2O+0.1% acetic acid were added to required rows. The plates were sealed to minimise evaporation.
To both rows of the Run Plate, 80 μL of 10 μM compound solution was added. At the appropriate time point, 20 μL of the assay mixture was added to the matching kill plate well containing 180 μL of 60:40 cold MeCN-H2O+0.1% acetic acid. For lipoic acid analysis, samples were analysed as soon as practicable by LCMS (Waters Xevo TQ-S). For parent conjugate and parent analysis the samples were diluted further 1 in 10: 20 μL supernatant was added to 180 μL of 50:50 MeCN—H2O.
Parent conjugate, parent and keratolytic concentrations were determined against appropriate standard response curves and the half-life (T½) of the parent conjugate was calculated using the peak area or the measured concentration of the parent conjugate at each time point in the linear region of the log-linear plot.

human T-cell line = settings: in vitro; cited from earlier work
[3] = tested on: human peripheral blood mononuclear cells; settings: in vitro; cited from earlier work
[4] = tested on: patients with dry eye and delayed tear clearance; settings: 0.5% ophthalmic suspension, QID, 4 weeks, 64 patients (Pflugfelder et al 2004); cited from earlier work
[5] = Cornea Homogenate Conc 0.15 mg/mL
[6] = Cornea Homogenate Conc 0.45 mg/mL

| SMILES | Hydrolytic % Lifitegrast formation at [time] ([1]; 60 min) | Esterase % Lifitegrast formation at 45 min [2, 5] | API Formation rate (%/min) [2, 5] | Esterase % Lifitegrast formation at 45 min [2, 6] | API Formation rate (%/min) [2, 6] | Hydrolytic % Lifitegrast formation at [time] ([1]; 44 min) | inhibition of T-cell adhesion to ICAM-1 (human T-cell line) | inhibition of secretion of inflammatory cytokines [3] | improving some signs and symptoms versus vehicle [4] |
| --- | --- | --- | --- | --- | --- | --- | --- | --- | --- |
| CC(=O)SCC(=O)OC(C)OC(=O)[C@H](Cc1cccc(S(C)(=O)=O)c1)NC(=O)c1c(Cl)cc2c(c1Cl)CCN(C(=O)c1ccc3ccoc3c1)C2 (stereo partly drawn) [Compound 31] | C [60 min] (percent API formation >4%) | D (percent API formation >75%) | d (API formation rate >1.5%/min) | D (percent API formation >75%) | d (API formation rate >1.5%/min) | – | – | – | – |
| CC(=O)N[C@@H](CSSC[C@H](NC(C)=O)C(=O)OC(C)OC(=O)[C@H](Cc1cccc(S(C)(=O)=O)c1)NC(=O)c1c(Cl)cc2c(c1Cl)CCN(C(=O)c1ccc3ccoc3c1)C2)C(=O)OC(C)OC(=O)[C@H](Cc1cccc(S(C)(=O)=O)c1)NC(=O)c1c(Cl)cc2c(c1Cl)CCN(C(=O)c1ccc3ccoc3c1)C2 (stereo partly drawn) [Compound 49] | – | A (percent active pharmaceutical ingredient (API) formation <25%) | a (API formation rate <0.5%/min) | A (percent active pharmaceutical ingredient (API) formation <25%) | a (API formation rate <0.5%/min) | – | – | – | – |
| CS(=O)(=O)c1cccc(C[C@H](NC(=O)c2c(Cl)cc3c(c2Cl)CCN(C(=O)c2ccc4ccoc4c2)C3)C(=O)O)c1 [lifitegrast] | – | – | – | – | – | – | may inhibit T-cell adhesion to ICAM-1 | may inhibit secretion of inflammatory cytokines | – |
| CCOC(=O)O[C@]1(C(=O)OCCl)CC[C@H]2[C@@H]3CCC4=CC(=O)C=C[C@]4(C)[C@H]3[C@@H](O)C[C@@]21C [loteprednol etabonate] | – | – | – | – | – | – | – | – | more effective than its vehicle |

The next lines start with results.

| Hydrolytic % Lifitegrast formation at [time] ([1]; 60 min) | Esterase % Lifitegrast formation at 45 min [2, 5] | API Formation rate (%/min) [2, 5] | Esterase % Lifitegrast formation at 45 min [2, 6] | API Formation rate (%/min) [2, 6] | Hydrolytic % Lifitegrast formation at [time] ([1]; 44 min) | SMILES | inhibition of T-cell adhesion to ICAM-1 (human T-cell line) | inhibition of secretion of inflammatory cytokines [3] | improving some signs and symptoms versus vehicle [4] |
| --- | --- | --- | --- | --- | --- | --- | --- | --- | --- |
| – | C (percent API formation 51% to 75%) | c (API formation rate 1.0-1.5%/min) | C (percent API formation 51% to 75%) | c (API formation rate 1.0-1.5%/min) | C [44 min] (percent API formation >4%) | CC(OC(=O)CCC(=O)O)OC(=O)[C@H](Cc1cccc(S(C)(=O)=O)c1)NC(=O)c1c(Cl)cc2c(c1Cl)CCN(C(=O)c1ccc3ccoc3c1)C2 (stereo partly drawn) [Compound 45] | – | – | – |
| – | B (percent API formation 25% to 50%) | b (API formation rate 0.5-1.0%/min) | C (percent API formation 51% to 75%) | c (API formation rate 1.0-1.5%/min) | – | CC(OC(=O)CCC(=O)OC(C)(C)C)OC(=O)[C@H](Cc1cccc(S(C)(=O)=O)c1)NC(=O)c1c(Cl)cc2c(c1Cl)CCN(C(=O)c1ccc3ccoc3c1)C2 (stereo partly drawn) [Compound 48] | – | – | – |
